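Exposure lasted 48 hours, with cells grown in 96-well plates and compounds tested at five concentrations. TGI marks complete inhibition of growth.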
Key:
Test in all cases: NCI-60 cell line screen, 48 h
HT29 colon = test system: HT29 colon
BT-549 breast = test system: BT-549 breast
SR leukemia = test system: SR leukemia
MALME-3M melanoma = test system: MALME-3M melanoma
HOP-92 NSCLC = test system: HOP-92 NSCLC
SN12C renal = test system: SN12C renal
SK-MEL-2 melanoma = test system: SK-MEL-2 melanoma
MDA-MB-231 breast = test system: MDA-MB-231 breast
ACHN renal = test system: ACHN renal
COLO 205 colon = test system: COLO 205 colon
PC-3 prostate = test system: PC-3 prostate
IGROV1 ovarian = test system: IGROV1 ovarian
NCI-H23 lung = test system: NCI-H23 lung
SK-OV-3 ovarian = test system: SK-OV-3 ovarian
KM12 colon = test system: KM12 colon
NCI/ADR-RES ovarian = test system: NCI/ADR-RES ovarian
MDA-MB-435 = test system: MDA-MB-435
A498 renal = test system: A498 renal
HS 578T breast = test system: HS 578T breast
A549 NSCLC = test system: A549 NSCLC
SNB-19 CNS = test system: SNB-19 CNS
MCF7 breast = test system: MCF7 breast
OVCAR-3 ovarian = test system: OVCAR-3 ovarian
SF-268 CNS = test system: SF-268 CNS
TK-10 renal = test system: TK-10 renal
OVCAR-5 ovarian = test system: OVCAR-5 ovarian
SF-295 CNS = test system: SF-295 CNS
HCT-15 colon = test system: HCT-15 colon
SK-MEL-28 melanoma = test system: SK-MEL-28 melanoma
UACC-257 melanoma = test system: UACC-257 melanoma
UO-31 renal = test system: UO-31 renal
MDA-N = test system: MDA-N
HOP-62 NSCLC = test system: HOP-62 NSCLC
EKVX NSCLC = test system: EKVX NSCLC
SF-539 CNS = test system: SF-539 CNS
OVCAR-4 ovarian = test system: OVCAR-4 ovarian
NCI-H522 lung = test system: NCI-H522 lung
RXF 393 renal = test system: RXF 393 renal
OVCAR-8 ovarian = test system: OVCAR-8 ovarian
786-0 renal = test system: 786-0 renal
U251 CNS = test system: U251 CNS
MOLT-4 leukemia = test system: MOLT-4 leukemia
SK-MEL-5 melanoma = test system: SK-MEL-5 melanoma
T-47D breast = test system: T-47D breast
HL-60(TB) leukemia = test system: HL-60(TB) leukemia
M14 melanoma = test system: M14 melanoma
CAKI-1 renal = test system: CAKI-1 renal
UACC-62 melanoma = test system: UACC-62 melanoma
HCT-116 colon = test system: HCT-116 colon
SW-620 colon = test system: SW-620 colon
K-562 leukemia = test system: K-562 leukemia
DU-145 prostate = test system: DU-145 prostate
LOX IMVI melanoma = test system: LOX IMVI melanoma
NCI-H226 lung = test system: NCI-H226 lung
RPMI-8226 leukemia = test system: RPMI-8226 leukemia
NCI-H460 lung = test system: NCI-H460 lung
HCC-2998 colon = test system: HCC-2998 colon
SNB-75 CNS = test system: SNB-75 CNS
CCRF-CEM leukemia = test system: CCRF-CEM leukemia

OCCCN=C1CCCCC1
TGI (HT29 colon): > 100 µM
TGI (BT-549 breast): > 100 µM
TGI (SR leukemia): > 100 µM
TGI (MALME-3M melanoma): > 100 µM
TGI (HOP-92 NSCLC): > 100 µM
TGI (SN12C renal): > 100 µM
TGI (SK-MEL-2 melanoma): > 100 µM
TGI (MDA-MB-231 breast): > 100 µM
TGI (ACHN renal): > 100 µM
TGI (COLO 205 colon): > 100 µM
TGI (PC-3 prostate): > 100 µM
TGI (IGROV1 ovarian): > 100 µM
TGI (NCI-H23 lung): > 100 µM
TGI (SK-OV-3 ovarian): > 100 µM
TGI (KM12 colon): > 100 µM
TGI (NCI/ADR-RES ovarian): > 100 µM
TGI (MDA-MB-435): > 100 µM
TGI (A498 renal): > 100 µM
TGI (HS 578T breast): > 100 µM
TGI (A549 NSCLC): > 100 µM
TGI (SNB-19 CNS): > 100 µM
TGI (MCF7 breast): > 100 µM
TGI (OVCAR-3 ovarian): > 100 µM
TGI (SF-268 CNS): > 100 µM
TGI (TK-10 renal): > 100 µM
TGI (OVCAR-5 ovarian): > 100 µM
TGI (SF-295 CNS): > 100 µM
TGI (HCT-15 colon): > 100 µM
TGI (SK-MEL-28 melanoma): > 100 µM
TGI (UACC-257 melanoma): > 100 µM
TGI (UO-31 renal): > 100 µM
TGI (MDA-N): > 100 µM
TGI (HOP-62 NSCLC): > 100 µM
TGI (EKVX NSCLC): > 100 µM
TGI (SF-539 CNS): > 100 µM
TGI (OVCAR-4 ovarian): > 100 µM
TGI (NCI-H522 lung): > 100 µM
TGI (RXF 393 renal): > 100 µM
TGI (OVCAR-8 ovarian): > 100 µM
TGI (786-0 renal): > 100 µM
TGI (U251 CNS): > 100 µM
TGI (MOLT-4 leukemia): > 100 µM
TGI (SK-MEL-5 melanoma): > 100 µM
TGI (T-47D breast): > 100 µM
TGI (HL-60(TB) leukemia): > 100 µM
TGI (M14 melanoma): > 100 µM
TGI (CAKI-1 renal): > 100 µM
TGI (UACC-62 melanoma): > 100 µM
TGI (HCT-116 colon): > 100 µM
TGI (SW-620 colon): > 100 µM
TGI (K-562 leukemia): > 100 µM
TGI (DU-145 prostate): > 100 µM
TGI (LOX IMVI melanoma): > 100 µM
TGI (NCI-H226 lung): > 100 µM
TGI (RPMI-8226 leukemia): > 100 µM
TGI (NCI-H460 lung): > 100 µM

O=[N+]([O-])c1cccc(/C=N/Nc2ccc3ccccc3n2)c1O
TGI (HT29 colon): 20.5 µM
TGI (BT-549 breast): 37.9 µM
TGI (SR leukemia): 21.4 µM
TGI (MALME-3M melanoma): 11.3 µM
TGI (HOP-92 NSCLC): > 46.9 µM
TGI (SN12C renal): 16.1 µM
TGI (SK-MEL-2 melanoma): 34.8 µM
TGI (MDA-MB-231 breast): 25.6 µM
TGI (COLO 205 colon): 9.48 µM
TGI (PC-3 prostate): 56.7 µM
TGI (IGROV1 ovarian): > 42.7 µM
TGI (NCI-H23 lung): 12.1 µM
TGI (SK-OV-3 ovarian): 11.1 µM
TGI (KM12 colon): 32.9 µM
TGI (NCI/ADR-RES ovarian): 3.5 µM
TGI (MDA-MB-435): 20.1 µM
TGI (A498 renal): > 66.9 µM
TGI (HS 578T breast): > 88.6 µM
TGI (A549 NSCLC): > 70.8 µM
TGI (SNB-19 CNS): 47.4 µM
TGI (MCF7 breast): 11.4 µM
TGI (OVCAR-3 ovarian): 0.632 µM
TGI (SF-268 CNS): 15.3 µM
TGI (TK-10 renal): > 44.9 µM
TGI (OVCAR-5 ovarian): 48.3 µM
TGI (SF-295 CNS): 14.2 µM
TGI (HCT-15 colon): > 100 µM
TGI (SK-MEL-28 melanoma): > 65.6 µM
TGI (UACC-257 melanoma): 7.67 µM
TGI (UO-31 renal): 3 µM
TGI (MDA-N): 34.3 µM
TGI (HOP-62 NSCLC): 8.9 µM
TGI (EKVX NSCLC): 39.1 µM
TGI (SF-539 CNS): 8.91 µM
TGI (OVCAR-4 ovarian): > 39.6 µM
TGI (NCI-H522 lung): 7.52 µM
TGI (RXF 393 renal): 17.4 µM
TGI (OVCAR-8 ovarian): > 39 µM
TGI (786-0 renal): 12.7 µM
TGI (U251 CNS): 16.4 µM
TGI (MOLT-4 leukemia): 10.7 µM
TGI (SK-MEL-5 melanoma): 3.45 µM
TGI (T-47D breast): 4.89 µM
TGI (HL-60(TB) leukemia): 3.13 µM
TGI (M14 melanoma): 5.32 µM
TGI (CAKI-1 renal): 16.5 µM
TGI (UACC-62 melanoma): 20.2 µM
TGI (HCT-116 colon): 4.77 µM
TGI (SW-620 colon): > 48.4 µM
TGI (K-562 leukemia): > 100 µM
TGI (DU-145 prostate): 17.7 µM
TGI (LOX IMVI melanoma): 12.7 µM
TGI (NCI-H226 lung): 9.98 µM
TGI (RPMI-8226 leukemia): 24.3 µM
TGI (NCI-H460 lung): 7.21 µM

Nc1nc(Sc2ccc([N+](=O)[O-])c3nonc23)c2[nH]cnc2n1
TGI (HT29 colon): 20.9 µM
TGI (BT-549 breast): 18 µM
TGI (SR leukemia): 1.77 µM
TGI (MALME-3M melanoma): 5.03 µM
TGI (HOP-92 NSCLC): 10.5 µM
TGI (SN12C renal): 27.2 µM
TGI (SK-MEL-2 melanoma): 6.32 µM
TGI (MDA-MB-231 breast): 13.7 µM
TGI (ACHN renal): 10.4 µM
TGI (COLO 205 colon): 3.11 µM
TGI (PC-3 prostate): 18 µM
TGI (IGROV1 ovarian): 17.1 µM
TGI (NCI-H23 lung): 10.9 µM
TGI (SK-OV-3 ovarian): 9.95 µM
TGI (KM12 colon): 15.3 µM
TGI (NCI/ADR-RES ovarian): 25.4 µM
TGI (HCC-2998 colon): 7.93 µM
TGI (MDA-MB-435): 12 µM
TGI (A498 renal): 13.8 µM
TGI (HS 578T breast): 62.5 µM
TGI (A549 NSCLC): 25.1 µM
TGI (SNB-19 CNS): 31.4 µM
TGI (MCF7 breast): 12 µM
TGI (OVCAR-3 ovarian): 13.8 µM
TGI (SF-268 CNS): 18 µM
TGI (TK-10 renal): 6.4 µM
TGI (OVCAR-5 ovarian): 17.3 µM
TGI (SF-295 CNS): 16.1 µM
TGI (HCT-15 colon): 14.1 µM
TGI (SK-MEL-28 melanoma): 22.3 µM
TGI (UACC-257 melanoma): 9.14 µM
TGI (UO-31 renal): 2.07 µM
TGI (SNB-75 CNS): 12.2 µM
TGI (CCRF-CEM leukemia): 2.13 µM
TGI (MDA-N): 12.2 µM
TGI (HOP-62 NSCLC): 18.1 µM
TGI (EKVX NSCLC): 19 µM
TGI (SF-539 CNS): 14.8 µM
TGI (OVCAR-4 ovarian): 15.9 µM
TGI (NCI-H522 lung): 2.44 µM
TGI (RXF 393 renal): 8.32 µM
TGI (OVCAR-8 ovarian): 9.7 µM
TGI (786-0 renal): 3.18 µM
TGI (U251 CNS): 21.7 µM
TGI (MOLT-4 leukemia): 1.8 µM
TGI (SK-MEL-5 melanoma): 7.8 µM
TGI (T-47D breast): 4.43 µM
TGI (HL-60(TB) leukemia): 4.86 µM
TGI (M14 melanoma): 8.72 µM
TGI (CAKI-1 renal): 5.74 µM
TGI (UACC-62 melanoma): 11.2 µM
TGI (HCT-116 colon): 3.89 µM
TGI (SW-620 colon): 2.87 µM
TGI (K-562 leukemia): 2.41 µM
TGI (DU-145 prostate): 16.2 µM
TGI (LOX IMVI melanoma): 11.7 µM
TGI (NCI-H226 lung): 11.3 µM
TGI (RPMI-8226 leukemia): 5.62 µM
TGI (NCI-H460 lung): 10.7 µM

Source: PubChem BioAssay (NCI)
